From patent US11724980B2, “Quinones having high capacity retention for use as electrolytes in aqueous redox flow batteries” (President and Fellows of Harvard College, priority 2018, dated 2023)
In brackets after ≈: the same amount, converted by molar mass. Read-outs that look alike come from different tables or passages of the source.

Assays:
[1] = physchem; assay type: physicochemical; details: for solubility: thermodynamic from solid
Protocol: Solubility limits of all DBEAQ isomers were measured in their oxidized forms by adding the potassium salt of DBEAQ (prepared by reacting DBEAQ with potassium hydroxide in water) until no further solid could be dissolved. After filtering the mixture through a PTFE 0.45 μm syringe filter, a saturated solution of DBEAQ in KOH was obtained. The saturated solution was then diluted by a known amount, and the concentration was evaluated by UV-Vis (Ocean Optics Flame-S Spectrometer Assembly) at 280 and 364 nm. […]
The solubility limit of DPPEAQ was measured in the oxidized form by adding the potassium salt of DPPEAQ (prepared by reacting DPPEAQ with potassium hydroxide in water) until no further solid could be dissolved. The mixture was adjusted to pH 9. After filtering the mixture through a PTFE 0.45 μm syringe filter, a saturated solution of DPPEAQ at pH 9 was obtained. The saturated solution was then diluted by a known amount while maintaining a pH of 9, and the concentration was evaluated by UV-Vis (Agilent Cary 60 spectrophotometer). The concentration was calculated according to a pre-calibrated absorbance-concentration curve of known concentrations of DPPEAQ at pH 9.

[2] = Unbalanced compositionally-symmetric cell cycling; details: for temporal fade rate: 0.10 M, pH 12 (0.01 M KOH)
Protocol: As a direct probe of the effect of O-alkylation of anthraquinone on its chemical stability, 2,6-DBEAQ was cycled potentiostatically in a volumetrically unbalanced compositionally-symmetric cell configuration.
Potentiostatic symmetric cell cycling was performed according to a reported procedure^8 in order to assess the temporal chemical stability of DBEAQ, independent of any variations in apparent capacity as a result of changes to membrane resistance, and in a configuration where there is negligible water or reactant crossover due to the same DBEAQ concentration being used in both electrolytes. […] 5 mL of the resulting electrolyte was used as the capacity-limiting side of a volumetrically unbalanced compositionally-symmetric cell, while the remaining 10 mL was used as the non-capacity-limiting side, i.e., with twice the nominal capacity of the capacity-limiting side. […].
The cycling stability of the DPPEAQ electrolyte was also studied by a previously published symmetric cell method.^24 Although the oxidized form of DPPEAQ is readily soluble at pH 9, proton-coupled electron transfer raises the pH of the electrolyte when it is reduced. Such pH fluctuations can produce misleading results in symmetric cell testing unless the starting pH is above the cutoff point for proton-coupled electron transfer.

[3] = pH 14 KOH, literature (ref 3); cited from earlier work
[4] = cited from earlier work
[5] = CV simulation as two one-electron reductions; assay type: physicochemical; details: same AQ:AQ2− ratio, from E1-E2 separations
Protocol: FIG. 6. Capacitance-corrected CV of 5 mM 2,6-DBEAQ in 1 M KOH (solid grey line). The dashed red line represents the simulated total current arising from two successive one-electron reductions with reduction potentials of −0.517 and −0.511 V vs. SHE, according to the procedure outlined in a previous publication.^1 Each simulated reduction has a rate constant ko=7×10^−3 cm/s and α=0.5.
A first CV experiment was performed in which 2,6-DBEAQ was dissolved in pH 14 KOH solution at a concentration of 5 mM. CV measurements were plotted in FIG. 5A and include results for the isomers of 2,6-DBEAQ.
Following our previous study on 2,6-DHAQ^17 and literature reports^1,18 on quinone electrochemistry in the absence of proton donors, we simulated the CV of 2,6-DBEAQ as representing two reversible electron transfer steps at two different potentials E1 and E2. The separation between simulated redox potentials for the first (E1) and second (E2) electron reductions for 2,6-DBEAQ is considerably narrower than the corresponding peak separation for 2,6-DHAQ^17 (6 mV vs. 60 mV).
The pH dependence of the proton-coupled electron transfer (POET) redox reaction for a generalized anthraquinone (AQ) is often visualized by the nine-membered square scheme (FIG. 7). The horizontal direction indicates electron transfer (ET), and the vertical direction indicates proton transfer (PT or protonation). Under strongly alkaline conditions, where the pH is higher than the second pKa (pKa2) of the reduced AQ (AQ^2−), no protonation of the semiquinone anion will take place, and reduction proceeds via two ET steps, from AQ to a semiquinone (AQ-^●) at E1, and from AQ-^● to AQ^2− at E2 which is typically <E1. Depending on the value of E1-E2, the mechanism of AQ reduction in alkaline conditions can either be a concerted one-step, two-electron process or two single-electron processes. […]

[6] = cited from earlier work; remark: listed apart in the source
[7] = previous study (ref 3/17); cited from earlier work
[8] = Cyclic voltammetry on glassy carbon electrode; assay type: physicochemical
Protocol: Glassy carbon was used as the working electrode for all three-electrode CV tests. RDE experiments were conducted using a Pine Instruments Modulated Speed Rotator AFMSRCE equipped with a 5 mm diameter glassy carbon working electrode, a Ag/AgCl reference electrode (BASi, pre-soaked in 3 M NaCl solution), and a graphite counter electrode. The electrode was rotated at a specific speed while the voltage was linearly swept from −0.4 to −0.11 V vs. Ag/AgCl (FIG. 4A). […].
A second CV experiment was performed in which 2,6-DBEAQ was dissolved in pH 14 KOH solution at a concentration of 2 mM. CV measurements were plotted in FIG. 4C. The standard equilibrium potential was determined to be −0.49 V vs. SHE. The separation between the peaks in the CV curves was 42 mV, indicating fairly rapid and reversible electrochemical reactions at the surface of the electrodes.

[9] = Rotating disk electrode study with Levich analysis; assay type: physicochemical; details: 5 mM in 1 M KOH, Levich plot
Protocol: Glassy carbon was used as the working electrode for all three-electrode CV tests. RDE experiments were conducted using a Pine Instruments Modulated Speed Rotator AFMSRCE equipped with a 5 mm diameter glassy carbon working electrode, a Ag/AgCl reference electrode (BASi, pre-soaked in 3 M NaCl solution), and a graphite counter electrode. The electrode was rotated at a specific speed while the voltage was linearly swept from −0.4 to −0.11 V vs. Ag/AgCl (FIG. 4A). […]. RDE experiments were conducted using a Pine Instruments Modulated Speed Rotator AFMSRCE equipped with a 5 mm diameter glassy carbon working electrode, a Ag/AgCl reference electrode (BASi, pre-soaked in a 3 M KCl solution), and a graphite counter electrode. […]

[10] = physchem; assay type: physicochemical; details: 0.1 M
Protocol: FIGS. 24A-24D. Comparison of the stability of DPPEAQ with respect to alkyl chain cleavage to that of 2,6-DBEAQ at pH 14. ^1H NMR spectra (500 MHz, 10 mM NaCH3SO3 internal standard, δ 2.6 ppm) of (A) DPPEAQ at pH 14; (B) DPPEAQ at pH 14, treated for 5.5 days at 95° C. and 0.1 M concentration; (C) 2,6-DBEAQ at pH 14; (D) 2,6-DBEAQ at pH 14, treated for 5.5 days at 95° C. and 0.1 M concentration. […] The relative integrals and splitting of the peaks in the spectra of DPPEAQ after treatment are consistent with the products of (3-hydroxypropyl)phosphonate cleavage. Samples of DPPEAQ at 0.1 M concentration and pH 14 in both the oxidized and reduced form were stored in FEP bottles and heated in an oven at 65° C. for 2 weeks. The extent of decomposition was determined by ^1H NMR, with peak integrals measured relative to an internal standard of NaCH3SO3 prepared at 10 mM concentration in D2O.
By performing elevated temperature chemical stability studies, we have identified that the cleavage of γ-hydroxybutyrate is involved in the decomposition of the oxidized form of 2,6-DBEAQ (FIGS. 10A-10C and FIGS. 11A-11D), and we have characterized the time course of γ-hydroxybutyrate cleavage at pH 12 and pH 14 and at 0.1 M and 0.5 M concentration (FIG. 12 and FIGS. 13A-13C). […]; these observations are consistent with long redox flow battery lifetime at typical operating cell conditions.
We designed an analogue of 2,6-DBEAQ but with phosphonate-terminated functional groups, DPPEAQ, appearing to deliver both of these desired outcomes.
The differing relative stabilities of DPPEAQ and 2,6-DBEAQ at pH 12 (at 95° C. and 0.1 M concentration), in contrast to the similar extent of their observed decomposition at pH 14, may be due to a competition between multiple decomposition mechanisms that vary in a pH-dependent manner. The concentration of hydroxide ions at pH 14 is tenfold higher than the concentration of either molecule at 0.1 M, as opposed to tenfold lower at pH 12. In particular, we propose a hydroxide-mediated nucleophilic substitution reaction (SNAr or SN2) that dominates the decomposition of both molecules at pH 14. However, at a lower pH of 12, an intramolecular reaction with carboxylate acting as the nucleophile dominates in the decomposition of 2,6-DBEAQ, while no analogous intramolecular reaction of DPPEAQ at pH 12 can take place due to much weaker nucleophilicity of bulked phosphonate compared with carboxylate. The difference in the dominant mechanisms of 2,6-DBEAQ decomposition at pH 12 and 14 that we are proposing is also consistent with the observation that the initial rate of degradation is not 100-fold slower at pH 12 relative to pH 14. […] In addition, the operability at lower pH serves to decrease the corrosion of battery systems and enable the use of less expensive materials.

**Q.** With `O=C(O)CCCOc1ccc2c(c1OCCCC(=O)O)C(=O)c1ccccc1C2=O` [1,2-DBEAQ] as the compound, how does the “Solubility (M) at pH 14 (pH 12)” value [1] read?
**A.** 0.9 M

**Q.** And the temporal fade rate [2]?
**A.** greater than 0.1 %/day

**Q.** What does the source list for `O=C(O)CCCOc1cccc2c1C(=O)c1c(OCCCC(=O)O)cccc1C2=O` [1,8-DBEAQ]?
**A.** Solubility (M) at pH 14 (pH 12) [1]: 0.75 M; temporal fade rate [2]: > 10 %/day

**Q.** Which solubility ([1]; pH 12, aqueous buffer) does the source give for `O=C1c2ccc(O)cc2C(=O)c2ccc(O)cc21` [2,6-DHAQ, 2,6-dihydroxyanthraquinone] here?
**A.** 100 mM (≈ 24 mg/mL)

**Q.** What about the solubility ([1]; pH 14, aqueous buffer) of the same compound?
**A.** 60 mM (≈ 14.4 mg/mL)

**Q.** What about the room temperature solubility [3] of the same compound?
**A.** 600 mM

**Q.** And the capacity fade rate ([4]; reported (refs 21,22))?
**A.** 5 %/day

**Q.** What about the “Keq_comp for semiquinone formation, times higher than for 2,6-DBEAQ” value [5] of the same compound?
**A.** 2.83 times

**Q.** What about the reduction potential ([6]; comparison value for 2,6-DHAQ) of the same compound?
**A.** −680 mV vs. SHE

**Q.** And the redox peak separation ([6]; literature (ref 3))?
**A.** ~90 mV

**Q.** What about the “temporal capacity fade rate” value ([2]; pH 14 (1 M KOH), 0.10 M (2,6-DBEAQ also 0.65 M)) of the same compound?
**A.** 5 %/day

**Q.** And the E1-E2 separation [7]?
**A.** 60 mV

**Q.** With `O=C1c2ccc(S(=O)(=O)O)cc2C(=O)c2ccc(S(=O)(=O)O)cc21` [AQDS, 9,10-anthraquinone-2,6-disulfonate] as the compound, how does the temporal fade rate ([4]; lowest previously reported quinone-based electrolyte (refs 10,11)) read?
**A.** 0.1-0.2 %/day

**Q.** What does the source list for `O=C1c2ccc(OCCCP(=O)(O)O)cc2C(=O)c2ccc(OCCCP(=O)(O)O)cc21` [DPPEAQ, (((9,10-dioxo-9,10-dihydroanthracene-2,6-diyl)bis(oxy))bis(propane-3,1-diyl))bis(phosphonic acid)]?
**A.** pH above which the potential is pH-independent ([8]; Pourbaix diagram): ~12.4; redox potential (E1/2) ([8]; buffered pH 9): −0.39 V vs. SHE; redox potential (E1/2) ([8]; buffered pH 12): −0.47 V vs. SHE; Pourbaix diagram slope ([8]; fit to data below pH 12): −30 mV/pH; redox potential (E1/2) ([8]; pH 9 unbuffered aqueous solution): −0.47 V vs. SHE; redox potential (E1/2) ([8]; pH 12 unbuffered aqueous solution): −0.49 V vs. SHE; solubility ([1]; pH 9, aqueous buffer, pH 9, read-out: solubility of the oxidized form): 750 mM (≈ 363 mg/mL); diffusion coefficient for the oxidized form [9]: 1.37×10^−6 cm^2/s; decomposition ([10]; pH 9, 6 days at 95° C.): no significant decomposition; decomposition ([10]; pH 12, 6 days at 95° C.): no significant decomposition; decomposition ([10]; pH 14, 5.5 days at 95° C.): 45%; chemical stability of the reduced form ([10]; pH 14, 12 days at 65° C.): robust chemical stability; capacity fade ([2]; 0.1 M, pH 13, cycled 6 days): 0.02 %/day
